Legend:
α-amylase (α-AMY) = molecular target: T1, α-amylase (α-AMY) (Homo sapiens, UniProt P04746); test: α-AMY inhibitory activity (starch-iodine method, absorbance at 580 nm); format: biochemical; conditions: from Activity (%) - [inhibitor] graphs
T1 sequence (P04746 16-511): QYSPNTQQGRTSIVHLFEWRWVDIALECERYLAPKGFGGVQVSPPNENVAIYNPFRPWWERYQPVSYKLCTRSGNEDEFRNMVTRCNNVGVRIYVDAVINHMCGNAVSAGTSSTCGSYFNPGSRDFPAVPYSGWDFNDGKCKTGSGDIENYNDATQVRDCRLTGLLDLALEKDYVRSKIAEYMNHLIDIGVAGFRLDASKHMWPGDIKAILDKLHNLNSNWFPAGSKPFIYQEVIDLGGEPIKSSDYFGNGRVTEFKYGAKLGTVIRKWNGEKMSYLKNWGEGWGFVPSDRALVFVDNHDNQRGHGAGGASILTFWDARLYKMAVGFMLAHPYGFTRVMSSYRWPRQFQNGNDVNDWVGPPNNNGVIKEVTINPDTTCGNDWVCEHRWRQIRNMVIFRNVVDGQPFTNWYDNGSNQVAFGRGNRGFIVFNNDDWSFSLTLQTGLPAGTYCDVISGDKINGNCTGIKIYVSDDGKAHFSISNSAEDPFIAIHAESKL
Method: The assay involved preparing a substrate solution of starch in NaOH, adjusting the pH with HCl, and diluting the solution to volume. Enzyme and sample solutions were preincubated, mixed with the substrate, and incubated again. The reaction was stopped with HCl, and the absorbance was measured at 580 nm.
(§1) The inhibition effects of the novel imidazo[1,2-a]pyridine-based 1,3,4-thiadiazole derivatives were determined with different inhibitor concentrations (at least five) against AR, α-GLY, and α-AMY. The IC50 of the derivatives was calculated from Activity (%) – [inhibitor] graphs for derivatives. The inhibition types and KI values were found by Lineweaver and Burk’s curves.[50],[51]

α-glycosidase (α-GLY) = α-glycosidase (α-GLY) (Saccharomyces cerevisiae, UniProt P53341); test: α-GLY inhibitory activity (para-nitrophenyl-α-D-glucopyranoside substrate); format: biochemical; conditions: Lineweaver-Burk curves; for Ki: mean ± SEM
Sequence of α-glycosidase (α-GLY) (P53341 whole entry): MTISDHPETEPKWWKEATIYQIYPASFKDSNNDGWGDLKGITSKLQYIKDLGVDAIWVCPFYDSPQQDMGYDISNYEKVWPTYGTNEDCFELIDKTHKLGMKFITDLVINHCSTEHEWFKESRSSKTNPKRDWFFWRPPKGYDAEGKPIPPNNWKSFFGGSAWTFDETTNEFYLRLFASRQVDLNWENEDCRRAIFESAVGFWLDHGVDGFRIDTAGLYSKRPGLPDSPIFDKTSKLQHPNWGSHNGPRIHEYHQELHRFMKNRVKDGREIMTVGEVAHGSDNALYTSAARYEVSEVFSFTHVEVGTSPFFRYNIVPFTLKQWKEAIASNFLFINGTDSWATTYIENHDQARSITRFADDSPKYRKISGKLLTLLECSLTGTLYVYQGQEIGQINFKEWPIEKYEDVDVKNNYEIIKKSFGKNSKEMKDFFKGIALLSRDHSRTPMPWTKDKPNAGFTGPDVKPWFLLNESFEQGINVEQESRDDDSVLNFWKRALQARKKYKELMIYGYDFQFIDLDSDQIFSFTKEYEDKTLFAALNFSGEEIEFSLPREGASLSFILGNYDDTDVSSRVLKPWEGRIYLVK
Method: In this analysis, a unit of α-GLY activity is defined as the amount of enzyme required to catalyze the hydrolysis of […] of substrate per minute at a standard pH of 7.4.
as §1

aldose reductase (AR) = aldose reductase (AR) (Homo sapiens, UniProt P15121); test: AR inhibitory activity (NADPH consumption, absorbance at 340 nm); format: biochemical; conditions: Lineweaver-Burk curves; mean ± SEM
Method: The activity was assessed using methods that were modified from previously established protocols.[48],[49] The inhibitory activity of AR was assessed by measuring the reduction in absorbance at 340 nm due to the consumption of NADPH. […] The IC50 of the derivatives was calculated from Activity (%) – [inhibitor] graphs for derivatives.

| SMILES | melting point [°C] | IC50 (α-amylase (α-AMY)) [µM] | α-GLY inhibition type (α-glycosidase (α-GLY)) | Ki (α-glycosidase (α-GLY)) [µM] | Ki (aldose reductase (AR)) [µM] |
| --- | --- | --- | --- | --- | --- |
| COc1cccc(Nc2nnc(SCC(=O)Nc3ccc(-c4cn5ccccc5n4)cc3)s2)c1 [8h, 2-[(5-(3-Methoxyphenyl)amino-1,3,4-thiadiazol-2-yl)thio]-N-[4-(imidazo[1,2-a]pyridin-2-yl)phenyl]acetamide] | 138.8 | 143 | – | – | – |
| O=C(CSc1nnc(Nc2ccc(Cl)cc2)s1)Nc1ccc(-c2cn3ccccc3n2)cc1 [8f, 2-[(5-(4-Chlorophenyl)amino-1,3,4-thiadiazol-2-yl)thio]-N-[4-(imidazo[1,2-a]pyridin-2-yl)phenyl]acetamide] | 265 | 142 | – | – | – |
| O=C(CSc1nnc(Nc2ccccc2Cl)s1)Nc1ccc(-c2cn3ccccc3n2)cc1 [8j, 2-[(5-(2-Chlorophenyl)amino-1,3,4-thiadiazol-2-yl)thio]-N-[4-(imidazo[1,2-a]pyridin-2-yl)phenyl]acetamide] | 129 | 81.1 | – | – | – |
| COc1ccccc1Nc1nnc(SCC(=O)Nc2ccc(-c3cn4ccccc4n3)cc2)s1 [8i, 2-[(5-(2-Methoxyphenyl)amino-1,3,4-thiadiazol-2-yl)thio]-N-[4-(imidazo[1,2-a]pyridin-2-yl)phenyl]acetamide] | 104.9 | 154 | – | – | – |
| O=C(CSc1nnc(Nc2cccc(Cl)c2)s1)Nc1ccc(-c2cn3ccccc3n2)cc1 [8g, 2-[(5-(3-Chlorophenyl)amino-1,3,4-thiadiazol-2-yl)thio]-N-[4-(imidazo[1,2-a]pyridin-2-yl)phenyl]acetamide] | 199.2 | 132 | – | – | – |
| O=C(CSc1nnc(NC2CCCCC2)s1)Nc1ccc(-c2cn3ccccc3n2)cc1 [8c, 2-[(5-Cyclohexylamino-1,3,4-thiadiazol-2-yl)thio]-N-[4-(imidazo[1,2-a]pyridin-2-yl)phenyl] Acetamide] | – | – | – | 77.5 ± 5.74 | 0.14 ± 0.0133 |
| CCNc1nnc(SCC(=O)Nc2ccc(-c3cn4ccccc4n3)cc2)s1 [8d, 2-[(5-Ethylamino-1,3,4-thiadiazol-2-yl)thio]-N-[4-(imidazo[1,2-a]pyridin-2-yl)phenyl] Acetamide] | – | 122 | – | 88.7 ± 17.7 | 0.0785 ± 0.00824 |

Further lines, results first:

| melting point [°C] | IC50 (α-amylase (α-AMY)) [µM] | α-GLY inhibition type (α-glycosidase (α-GLY)) | Ki (α-glycosidase (α-GLY)) [µM] | Ki (aldose reductase (AR)) [µM] | SMILES |
| --- | --- | --- | --- | --- | --- |
| 216.5 | 113 | – | – | – | COc1ccc(Nc2nnc(SCC(=O)Nc3ccc(-c4cn5ccccc5n4)cc3)s2)cc1 [8k, 2-[(5-(4-Methoxyphenyl)amino-1,3,4-thiadiazol-2-yl)thio]-N-[4-(imidazo[1,2-a]pyridin-2-yl)phenyl]acetamide] |
| 130.1 | – | competitive inhibition | – | – | Cc1ccc(Nc2nnc(SCC(=O)Nc3ccc(-c4cn5ccccc5n4)cc3)s2)cc1 [8e, 2-[(5-(4-Methylphenyl)amino-1,3,4-thiadiazol-2-yl)thio]-N-[4-(imidazo[1,2-a]pyridin-2-yl)phenyl]acetamide] |
| 244.2 | 113 | noncompetitive inhibition | – | – | CCc1ccc(Nc2nnc(SCC(=O)Nc3ccc(-c4cn5ccccc5n4)cc3)s2)cc1 [8b, 2-[(5-(4-Ethylphenyl)amino-1,3,4-thiadiazol-2-yl)thio]-N-[4-(imidazo[1,2-a]pyridin-2-yl)phenyl]acetamide] |
| – | 142 | – | 33 ± 1.25 | 0.0349 ± 0.00359 | O=C(CSc1nnc(Nc2ccccc2)s1)Nc1ccc(-c2cn3ccccc3n2)cc1 [8a, 2-[(5-Phenylamino-1,3,4-thiadiazol-2-yl)thio]-N-[4-(imidazo[1,2-a]pyridin-2-yl)phenyl] Acetamide] |

— article PMC11500159, “Synthesis, α-Glucosidase, α-Amylase, and Aldol Reductase Inhibitory Activity with Molecular Docking Study of Novel Imidazo[1,2-a]pyridine Derivatives” (ACS Omega, 2024)
